Consider 19 compounds from patent publication US20260226068A1, “IMIDAZOTRIAZINE IL-17A MODULATORS AND USES THEREOF” (DICE ALPHA, INC., priority 2023, published 2026).

One test concerns the target T1, IL-17A/A (Homo sapiens, UniProt Q16552).
T1 construct: purchased Genscript Z03228
T1 sequence (Q16552 24-155): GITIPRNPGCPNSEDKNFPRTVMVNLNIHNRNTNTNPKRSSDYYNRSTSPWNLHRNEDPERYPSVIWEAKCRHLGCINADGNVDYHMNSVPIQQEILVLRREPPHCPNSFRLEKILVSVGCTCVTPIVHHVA
The test can be described thus: IL-17A/A HEK-Blue cell assay (SEAP reporter). The format is cell-based. The note with it: HEK-Blue IL-17A reporter cells, IL17A/A 5 ng/mL, 20 hours, SEAP read at A630; read-out: HEK-Blue IL17AA (IC50 for IL-17A/A inhibition).

A further test deals with T2, IL-17A/F (Homo sapiens, UniProt Q16552+Q96PD4).
T2 construct: purchased R&D Systems
T2 sequence (Q16552 24-155): T1 sequence (Q16552 24-155)
T2 sequence (Q96PD4 31-163): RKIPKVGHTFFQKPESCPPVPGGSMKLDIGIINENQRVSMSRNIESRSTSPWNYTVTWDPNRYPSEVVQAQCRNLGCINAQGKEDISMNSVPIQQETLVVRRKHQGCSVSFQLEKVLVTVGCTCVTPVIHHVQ
The test can be described thus: IL-17A/F HEK-Blue cell assay (SEAP reporter). The test is classed as cell-based. The note with it: HEK-Blue IL-17A reporter cells, IL17A/F 5 ng/mL, 20 hours, SEAP read at A630; read-out: HEK-Blue IL17AF (IC50 for IL-17A/F inhibition).

With `O=C(N[C@H](c1cn2nc(CC3C[C@@H](C(F)(F)F)CNC3=O)c(N3CCOCC3)nc2n1)C1CCC(F)(F)CC1)c1nonc1C1CC1` (some centres unmarked) [Compound 57], the values for the IC50 at IL-17A/A and at IL-17A/F were under 100 nM and over 1000 nM, respectively.

Take `Cn1nccc1C(=O)N[C@H](c1cn2nc(C[C@H]3C[C@@H](C(F)(F)F)CNC3=O)c([C@H]3CCCOC3)nc2n1)[C@H]1CCCC(F)(F)C1` (single isomer, unassigned) [Compound 267]: the IC50 on IL-17A/A was under 100 nM; at IL-17A/F, 100 to 1000 nM.

`CCn1nccc1C(=O)N[C@H](c1cn2nc(CC3C[C@@H](C(F)(F)F)CNC3=O)c(N3C[C@@H]4C[C@H]3CO4)nc2n1)[C@H]1CC[C@H](C)CC1` (single isomer, unassigned) [Compound 108]: the IC50 at IL-17A/A and on IL-17A/F was under 100 nM each time.

In the case of `Cc1nonc1C(=O)N[C@H](c1cn2nc(C[C@H]3C[C@H](C)CNC3=O)c(C3CCOCC3)nc2n1)C1CCC(F)(F)CC1` [Compound 398], the IC50 at IL-17A/A was 100 to 1000 nM; on IL-17A/F, over 1000 nM.

For the compound `CCn1nccc1C(=O)N[C@H](c1cn2nc(C[C@H]3C[C@@H](C(F)(F)F)CNC3=O)c(C3CCN(CCOC)C3)nc2n1)C1CCC(F)(F)CC1` (stereo partly drawn) [Compound 370, N-((1S)-(4,4-difluorocyclohexyl)(3-(1-(2-methoxyethyl)pyrrolidin-3-yl)-2-(((3R,5R)-2-oxo-5-(trifluoromethyl)piperidin-3-yl)methyl)imidazo[1,2-b][1,2,4]triazin-6-yl)methyl)-1-ethyl-1H-pyrazole-5-carboxamide], the IC50 at IL-17A/A is 100 to 1000 nM; at IL-17A/F, over 1000 nM.

Turning to `CCn1nccc1C(=O)N[C@H](c1cn2nc(C[C@H]3C[C@@H](C(F)(F)F)CNC3=O)c(N3CC4CCC(C3)N4C)nc2n1)C1CCC(F)(F)CC1` [Compound 361, N-((1S)-(4,4-difluorocyclohexyl)(3-(8-methyl-3,8-diazabicyclo[3.2.1]octan-3-yl)-2-(((3R,5R)-2-oxo-5-(trifluoromethyl)piperidin-3-yl)methyl)imidazo[1,2-b][1,2,4]triazin-6-yl)methyl)-1-ethyl-1H-pyrazole-5-carboxamide], the results for the IC50 on IL-17A/A and at IL-17A/F were under 100 nM and 100 to 1000 nM, respectively.

Turning to `CCn1nccc1C(=O)N[C@H](c1cn2nc(C[C@H]3C[C@@H](C(F)(F)F)CNC3=O)c(C34CCOC(C3)C4)nc2n1)C1CCC(F)(F)CC1` [Compound 250, N—((S)-(3-(2-oxabicyclo[3.1.1]heptan-5-yl)-2-(((3R,5R)-2-oxo-5-(trifluoromethyl)piperidin-3-yl)methyl)imidazo[1,2-b][1,2,4]triazin-6-yl)(4,4-difluorocyclohexyl)methyl)-1-ethyl-1H-pyrazole-5-carboxamide], the IC50 on IL-17A/A was under 100 nM; on IL-17A/F, 100 to 1000 nM.

As for `CN(C)CCn1nccc1C(=O)N[C@H](c1cn2nc(C[C@H]3C[C@@H](C(F)(F)F)CNC3=O)c(C3CCOCC3)nc2n1)C1CCC(F)(F)CC1` [Compound 362, N—((S)-(4,4-difluorocyclohexyl)(2-(((3R,5R)-2-oxo-5-(trifluoromethyl)piperidin-3-yl)methyl)-3-(tetrahydro-2H-pyran-4-yl)imidazo[1,2-b][1,2,4]triazin-6-yl)methyl)-1-(2-(dimethylamino)ethyl)-1H-pyrazole-5-carboxamide], the figures for the IC50 at IL-17A/A and at IL-17A/F were 100 to 1000 nM and over 1000 nM, respectively.

With `CCn1nccc1C(=O)N[C@H](c1cn2nc(CC3C[C@@H](C(F)(F)F)CNC3=O)c(N3CC4CC(C3)O4)nc2n1)C1CCC(F)(F)CC1` (single isomer, unassigned) [Compound 82], the IC50 was under 100 nM on IL-17A/A and over 1000 nM on IL-17A/F.

With `O=C(N[C@H](c1cn2nc(C[C@H]3C[C@@H](C(F)(F)F)CNC3=O)c(C3CCOCC3)nc2n1)C1CCC(F)(F)CC1)c1conc1C1CC1(F)F` (single isomer, unassigned) [Compound 144], the IC50 is under 100 nM on IL-17A/A and 100 to 1000 nM on IL-17A/F.

Consider `CCc1nonc1C(=O)N[C@H](c1cn2nc(C[C@H]3C[C@@H](C(F)(F)F)CNC3=O)c(N3CCOCC3)nc2n1)C1CCCCC1` [Compound 327, N—((S)-cyclohexyl(3-morpholino-2-(((3R,5R)-2-oxo-5-(trifluoromethyl)piperidin-3-yl)methyl)imidazo[1,2-b][1,2,4]triazin-6-yl)methyl)-4-ethyl-1,2,5-oxadiazole-3-carboxamide], for which the IC50 at IL-17A/A is under 100 nM; at IL-17A/F, over 1000 nM.

Consider `CCn1nccc1C(=O)N[C@H](c1cn2nc(C[C@H]3C[C@@H](C(F)(F)F)CNC3=O)c(C3CCOCC3)nc2n1)C1CCCCC1` [Compound 196, N-((1S)-cyclohexyl(2-(((3R,5R)-2-oxo-5-(trifluoromethyl)piperidin-3-yl)methyl)-3-(tetrahydro-2H-pyran-4-yl)imidazo[1,2-b][1,2,4]triazin-6-yl)methyl)-1-ethyl-1H-pyrazole-5-carboxamide], for which the IC50 on IL-17A/A and on IL-17A/F was under 100 nM each time.

`Cc1nonc1C(=O)N[C@H](c1cn2nc(C[C@H]3C[C@@H](C(F)(F)F)CNC3=O)c([C@H]3CCOC3)nc2n1)C1CCC(F)(F)CC1` (single isomer, unassigned) [Compound 274]: the IC50 was under 100 nM on IL-17A/A and over 1000 nM on IL-17A/F.

Take `CC(C)n1nccc1C(=O)N[C@H](c1cn2nc(CC3C[C@@H](C(F)(F)F)CNC3=O)c(N3CC4CC(C3)O4)nc2n1)[C@@H]1CCCC(F)(F)C1` (single isomer, unassigned) [Compound 129]: the figures for the IC50 at IL-17A/A and on IL-17A/F were under 100 nM and 100 to 1000 nM, respectively.

On to `CCn1nccc1C(=O)N[C@H](c1cn2nc(CC3C[C@@H](C(F)(F)F)CNC3=O)c(N3C[C@@H]4C[C@H]3CO4)nc2n1)[C@H]1CC[C@H](C)CC1` (single isomer, unassigned) [Compound 109], for which the IC50 on IL-17A/A is under 100 nM; on IL-17A/F, 100 to 1000 nM.

`CCn1ncnc1C(=O)N[C@H](c1cn2nc(C[C@H]3C[C@@H](C(F)(F)F)CNC3=O)c(C3CCOCC3)nc2n1)C1CCCCC1` [Compound 409]: the IC50 on IL-17A/A is under 100 nM; on IL-17A/F it was over 1000 nM.

Take `CCn1nccc1C(=O)N[C@H](c1cn2nc(C[C@H]3C[C@@H](C(F)(F)F)CNC3=O)c(C3(OC)CCOCC3)nc2n1)C1CCC(F)(F)CC1` [Compound 269, N—((S)-(4,4-difluorocyclohexyl)(3-(4-methoxytetrahydro-2H-pyran-4-yl)-2-(((3R,5R)-2-oxo-5-(trifluoromethyl)piperidin-3-yl)methyl)imidazo[1,2-b][1,2,4]triazin-6-yl)methyl)-1-ethyl-1H-pyrazole-5-carboxamide]: the IC50 was under 100 nM at IL-17A/A and over 1000 nM at IL-17A/F.

In the case of `CCc1nc2nc([C@@H](NC(=O)c3ccnn3CC)C3CCC(F)(F)CC3)cn2nc1C[C@H]1C[C@@H](C(F)(F)F)CNC1=O` [Compound 167, N-((1S)-(4,4-difluorocyclohexyl)(3-ethyl-2-(((3R,5R)-2-oxo-5-(trifluoromethyl)piperidin-3-yl)methyl)imidazo[1,2-b][1,2,4]triazin-6-yl)methyl)-1-ethyl-1H-pyrazole-5-carboxamide], the IC50 is under 100 nM on IL-17A/A and 100 to 1000 nM at IL-17A/F.

For `CCn1nccc1C(=O)N[C@H](c1cn2nc(C[C@H]3C[C@@H](C(F)(F)F)CNC3=O)c([C@H](C)C3CCOCC3)nc2n1)C1CCC(F)(F)CC1` (single isomer, unassigned) [Compound 251], the values for the IC50 on IL-17A/A and on IL-17A/F were under 100 nM and over 1000 nM, respectively.
